Test results published in patent US12054560B2, “Bifunctional molecules recruiting antibodies and targeting cancer cells” (JIANGNAN UNIVERSITY, priority 2017, dated 2024).
Blank lines part the entries; values can stand above or below the molecule they belong to. Bridge positions count the residues as written; N and C are the ends. Ends that are not written are not given here.

Columns and labels:
[1] = test system: HUVEC (high expression of CD13); test: Flow cytometry, recruitment of anti-DNP antibody on HUVEC cells; format: cell-based; conditions: 250 nM, anti-DNP antibody 20 μg/mL, FIG. 9
Method: Cell assay implementation: cell culture: commercial cells HUVEC (high expression of CD13) was cultured in DMEM complete medium. All cell culture conditions were 37° C., 5% CO2. Flow cytometry assay: (1) The cells were digested with trypsin, resuspended in flow medium diluted to 1×10^5 cells. 400 μL of cells (40,000 cells) were added to a sterile EP tube. (2) NGR oligopeptide (NGR peptide, amino acid sequence: GGG-cyclo-(CNGRC) (SEQ ID NO:8)) or NGR-DNP were added at a final concentration of 250 nM. In the negative control group, cells were treated with PBS. The cells were added anti-DNP (anti-DNP) antibody at a concentration of 20 μg/mL in all groups, incubate on ice for 1 h. then the cells were washed and incubated with fluorescent secondary antibody for 0.5 h. (3) The cells were thoroughly washed gently with a flow buffer, resuspended, and analyzed by instruments.

[2] = test system: HUVEC cells; test: ADCC assay on HUVEC cells; format: cell-based; conditions: 250 nM, anti-DNP antibody, PBMC, LDH method, FIG. 9
Method: (§1) ADCC assay implementation: (1) HUVEC cells were seeded in 96-well plates at a concentration of 10,000 cells/well. After the cells were fully attached, added with NGR oligopeptide (NGR peptide, amino acid sequence: GGG-cyclo-(CNGRC) (SEQ ID NO:8)) or NGR-DNP compound at a final concentration of 250 nM and immediately added a certain concentration of anti-DNP antibody. (2) After incubation for a period of time, freshly extracted PBMC cells were added at a certain effect target ratio for a certain period of time. (3) The supernatant was removed by centrifugation, and cytotoxicity was measured by the LDH method.

[3] = test system: HUVEC cells; test: CDC assay on HUVEC cells; format: cell-based; conditions: 250 nM, anti-DNP antibody, 10% complement, cck8 method, FIG. 9
Method: (§2) CDC assay implementation: (1) HUVEC cells were seeded in 96-well plates at a concentration of 5,000 cells/well. After the cells were fully attached, added with NGR oligopeptide (NGR peptide, amino acid sequence: GGG-cyclo-(CNGRC) (SEQ ID NO:8)) or NGR-DNP compound at a final concentration of 250 nM and added a certain concentration of anti-DNP antibody at the same time. After 2 hours of incubation at 37° C., a final concentration of 10% of the complement solution was added and incubated for 1 hour at 37° C. After the incubation, the cell viability was measured by the cck8 method.

[4] = test system: HEK-293 (high expression of integrin αvβ3); test: Flow cytometry on HEK-293 cells; format: cell-based; conditions: FIG. 11
Method: (§3) Cell assay implementation: cell culture: commercial cells HEK-293 (high expression of integrin αvβ3), SKOV-3 (high expression of integrin αvβ3, αvβ 5), and HT-29 (high expression of integrin αvβ5) was cultured in DMEM complete medium. All cell culture conditions were 37° C., 5% CO2. Flow cytometry assay: (1) The cells were digested with trypsin, resuspended in flow medium diluted to 1×10^5 cells. 400 μL of cells (40,000 cells) were added to a sterile EP tube. (2) RGD analogues (SEQ ID NO:9), RGD-DNP and RGD-linker-DNP compounds were added […], incubate on ice for 1 h. Then the cells were washed and incubated with fluorescent secondary antibody for 0.5 h. (3) the cells were thoroughly washed gently with a flow buffer, resuspended, and analyzed by instruments.

[5] = test system: SKOV-3 (high expression of integrin αvβ3, αvβ 5); test: Flow cytometry on SKOV-3 cells; format: cell-based; conditions: FIG. 11
Method: as §3

[6] = test system: HT-29 (high expression of integrin αvβ5); test: Flow cytometry on HT-29 cells; format: cell-based; conditions: FIG. 11
Method: as §3

[7] = test system: HEK-293 cells; test: ADCC assay on HEK-293 cells; format: cell-based; conditions: 250 nM, anti-DNP antibody, PBMC, LDH method, FIG. 11
Method: as §1, with “HEK-293, SKOV-3, HT-29” for “HUVEC”, “RGD analogues” for “NGR oligopeptide (NGR peptide, amino acid sequence: GGG-cyclo-(CNGRC)”, “NO:9), RGD-DNP and RGD-linker-DNP compounds” for “NO:8)) or NGR-DNP compound”

[8] = test system: HEK-293 cells; test: CDC assay on HEK-293 cells; format: cell-based; conditions: 250 nM, anti-DNP antibody, 10% complement, cck8 method, FIG. 11
Method: as §2, with “HEK-293, SKOV-3, HT-29” for “HUVEC”, “RGD analogues” for “NGR oligopeptide (NGR peptide, amino acid sequence: GGG-cyclo-(CNGRC)”, “NO:9), RGD-DNP and RGD-linker-DNP compounds” for “NO:8)) or NGR-DNP compound”

[9] = test system: SKBR3 (HER2 positive) cells; test: Flow cytometry, recruitment of anti-Rha IgG on SKBR3 cells; format: cell-based; conditions: 250 nM, Alexa 488-conjugated rabbit anti-Rha IgG, FIG. 5
Method: (§4) SKBR3 (HER2 positive) and MCF7 cells (HER2 negative) were grown in DMEM supplemented with 10% FBS, 1% penicillin-streptomycin. All cells were cultured at 37° C. in a 5% CO2 humidified atmosphere.
(1) Cells were cultured and detached with trypsin-EDTA and then resuspended to 1.0×10^5 cells/mL. Forty thousand of these cells were added into tubes. (2) Nanobody C7b and Rha conjugated C7b were then added to a final concentration of 250 nM, followed which Alexa 488-conjugated rabbit anti-Rha IgG antibodies were added. In the negative control group, cells were treated with PBS instead of nanobody. These cells were incubated on ice for 60 min, (3) washed with flow cytometry buffer and then analyzed using an Accuri C6 flow cytometer.

[10] = test system: SKBR3 cells; test: ADCC assay on SKBR3 cells; format: cell-based; conditions: rabbit anti-Rha IgG, human peripheral blood mononuclear cells, LDH kit, FIG. 6(A)
Method: as §4
(1) SKBR3 cells were seeded in 96-well plates at a concentration of 10,000 cells/well and then treated with C7b and Rha conjugated C7b in the presence of rabbit anti-Rha IgG antibodies. (2) Next, freshly isolated human peripheral blood mononuclear cells were added to each well. (3) Following the incubation period, the supernatant was transferred onto a new black 96-well and detected using LDH kit.

[11] = test system: SKBR3 cells; test: CDC assay on SKBR3 cells; format: cell-based; conditions: 20% normal human serum, cck8 kit, FIG. 6(B)
Method: as §4
(1) SKBR3 cells were seeded in 96-well plates at a concentration of 5000 cells/well and (2) then treated with C7b and Rhaconjugated C7b in the presence of 20% normal human serum (the source of anti-Rha IgG and complement). (3) Following the incubation period, the results detected using cck8 kit.

[12] = target: T1, CD13 receptor, P15144; test: cell-based or functional assay
T1 chain: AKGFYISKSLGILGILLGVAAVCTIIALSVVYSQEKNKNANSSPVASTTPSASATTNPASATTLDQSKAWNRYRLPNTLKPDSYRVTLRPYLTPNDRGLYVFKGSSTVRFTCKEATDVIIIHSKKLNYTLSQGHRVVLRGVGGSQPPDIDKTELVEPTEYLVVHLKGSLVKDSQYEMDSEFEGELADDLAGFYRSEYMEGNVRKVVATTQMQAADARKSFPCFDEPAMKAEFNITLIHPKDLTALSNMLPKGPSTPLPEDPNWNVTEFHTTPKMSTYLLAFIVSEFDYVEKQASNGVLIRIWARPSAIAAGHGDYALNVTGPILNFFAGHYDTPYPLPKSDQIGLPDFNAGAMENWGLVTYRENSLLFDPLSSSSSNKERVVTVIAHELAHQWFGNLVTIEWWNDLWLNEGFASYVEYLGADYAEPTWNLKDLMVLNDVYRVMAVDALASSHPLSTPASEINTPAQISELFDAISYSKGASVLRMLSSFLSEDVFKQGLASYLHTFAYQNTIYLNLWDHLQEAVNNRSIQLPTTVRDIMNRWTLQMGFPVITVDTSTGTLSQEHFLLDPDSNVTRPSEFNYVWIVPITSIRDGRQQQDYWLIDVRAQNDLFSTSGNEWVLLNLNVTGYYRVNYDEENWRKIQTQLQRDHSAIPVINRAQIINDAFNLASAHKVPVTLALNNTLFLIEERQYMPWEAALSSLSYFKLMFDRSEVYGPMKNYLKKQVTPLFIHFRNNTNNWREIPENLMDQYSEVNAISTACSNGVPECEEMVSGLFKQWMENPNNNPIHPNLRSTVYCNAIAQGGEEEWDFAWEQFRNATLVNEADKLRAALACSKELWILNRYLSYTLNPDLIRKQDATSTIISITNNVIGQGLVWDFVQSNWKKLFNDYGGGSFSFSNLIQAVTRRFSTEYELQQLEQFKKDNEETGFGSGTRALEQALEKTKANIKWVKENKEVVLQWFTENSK

Molecule: NGR-DNP: DNP-TEG-COOH coupled to peptide GGGCNGRC, oxidized with iodine to the cyclic form (GGGCNGRC-OH; disulfide 4-8 (inferred); also: DNP-TEG-COOH coupled to peptide, site not given here)
recruitment of antibodies and targeting of tumor cells [1]: can recruit antibodies and target tumor cells | ADCC cell lysis rate [2]: approximately 60% | CDC cell lysis rate [3]: approximately 60%

Molecule: RGD-DNP: DNP coupled to cyclic RGD analogue Cyclo-(DFKRG), short connecting arm (cyclo(DFKRG); also: DNP conjugated (site only in drawing))
binding to cells [4]: can bind | binding to cells [5]: can bind | binding to cells [6]: can bind | ADCC kill rate [7]: 18% | CDC kill rate [8]: 21%

Molecule: RGD-linker-DNP: DNP coupled through a linker to cyclic RGD analogue Cyclo-(DFKRG), long connecting arm (cyclo(DFKRG); also: DNP conjugated via long linker (site only in drawing))
binding to cells [4]: can bind | binding to cells [5]: can bind | binding to cells [6]: can bind | ADCC kill rate [7]: 38% | CDC kill rate [8]: 42%

B1: C7b: anti-HER2 nanobody C7b, SEQ ID NO: 2 (related NCBI sequence ID: AFN61318.1) (protein)
VHH: MQVQLVQSGGGLVQAGGSLRLSCAASGRTFSSYAMAWFRQAPGKEREFVAAISWSGANIYVADSVKGRFTISRDNAKDTVYLQMNSLKPEDTAVYYCAVKLGFAPVEERQYDYWGQGTQVTVSSLPETGG
modifications: The HER2-specific nanobody C7b sequence was genetically engineered to contain at its C-terminus a sorting signal for further sortase A-mediated ligation.
fluorescence intensity increase compared to negative control (accumulation of anti-Rha IgGs on cells) [9]: no fluorescence intensity increase

B2: C7b-hexEGRha: nanobody C7b linked by SrtA to small molecule GGG-hexEGRha (conjugate)
VHH: B1 VHH
ADCC efficacy [10]: 43% | CDC efficacy [11]: 47%

B3: C7b-triEGRha: nanobody C7b linked by SrtA to small molecule GGG-triEGRha (conjugate)
VHH: B1 VHH
ADCC efficacy [10]: 32% | CDC efficacy [11]: 36%

CDC and ADCC cell lysis rate [12]: 60%
Molecule: GGGCNGRC (modifications not checked) [NGR-DNP]
